One block for each molecule: values may come before it. Where a SMILES comes first, the peptide text is derived from it. Bridges are numbered along the chain shown (N, C = ends). Where no end group is shown, it is not given here. rhodamine = not defined here
Experiments:
frizzled-2 (rFzd-2) = biological target: T1, frizzled-2 (rFzd-2) (Rattus norvegicus, UniProt Q08464); experiment: Activity assay: Wnt3a-induced luciferase (superTOPflash) in HEK cells transfected with frizzled-2; type: cell-based; details: for Blocking of Wnt3a-induced luciferase activity, rFzd-2: peptide 1.10^−8 M
T1 construct: expressed in transfected cells; host or cells: HEK293 superTOPflash (human embryonic kidney), transient, pcDNA3.1/hygro
Description: (§1) Human embryonic kidney (HEK) cells were used for screening. These cells have a luciferase construct stably transfected into the genome (see FIG. 2A), such that when the frizzled receptor is activated and β-catenin is increased, the luciferase is activated by transcription and light can be measured.
(§2) The peptides were tested by transfecting the frizzled-1 or the frizzled-2 receptor and addition of UM206(S-S) to the cell culture. For testing antagonistic activity, UM206 was added and the natural ligand Wnt3a was added, which is a natural stimulus for the canonical pathway.
(§3) Day 2: Transfection 12-well plates • heat Fugene6 and DNA 15 minutes at RT • 2 ml serum-free medium in tube • add 3μl fugene • add 2 μg DNA • incubate 30 minutes at RT • wash with PBS • add 50 μtransfectiemix • add 1 ml antibiotica-free medium
(§4) Day 3: Add conditioned medium or UM206
(§5) Day 4: Luciferase activity measurements • remove medium • wash with PBS • add 500 μl ⅕ lysisbuffer • shake for 60 minutes • centrifuge in tube • 20 μl lysaat and 50 μl luciferase in new tube for measurement • vortex • measure
(§6) To determine the inhibitory constant of UM206-8, HEK293-superTOPflash cells were transfected with either rFzd-1 or -2 and incubated with Wnt3a (10^−9M) in the presence of increasing concentrations of either of the peptides (FIG. 15). For UM206, a biphasic inhibition curve was observed that was best fitted with a two-binding-state model.
(§7) The cell lines were cultured in 75 cm^2 culture flasks (Corning, Schiphol, the Netherlands) in Dulbeco's modified essential medium with L-glutamine (2 mM), 10% fetal calf serum (Invitrogen, Merelbeke, Belgium), and 1% gentamycin (Sigma-Aldrich, Zwijndrecht, The Netherlands). Before starting the experiment, the cell lines were treated with plasmocin 25 μg/ml (Invivogen, Toulose, France) and tested with a mycoalert mycoplasma detection kit (Lonza, Rockland Me., USA). Cells were transiently transfected with Fugene6 (Roche, Indianapolis Ind., USA) with plasmid DNA, pcDNA3.1/hygro (Invitrogen) with frizzled-1/2/4 or Wnts 3a-5a or with pcDNA3.0 (Invitrogen) containing the β-catenin or frizzled-5 sequence. After transfection, the cells were cultured for 24 hours in conditioned medium, collected from the cultured L-cells, L-cells with Wnt3a or 5a (Invitrogen). At the same moment the antagonist was added.

frizzled receptor = experiment: Activity on the frizzled receptor (activity assay of Example 1), result in words; type: cell-based
Description: as §1, §2
Analogues of UM206 were prepared by solid phase peptide synthesis. Each amino acid residue was sequentially replaced by an alanine residue and antagonistic activity of the analogue was tested as described in the activity assay of Example 1. […] Titles indicate which amino acid residue was substituted by an alanine residue.

frizzled-1 (rFzd-1) = biological target: T2, frizzled-1 (rFzd-1) (Rattus norvegicus, UniProt Q08463); experiment: Activity assay: Wnt3a-induced luciferase (superTOPflash) in HEK cells transfected with frizzled-1; type: cell-based; details: for Blocking of Wnt3a-induced luciferase activity, rFzd-1: peptide 1.10^−8 M
T2 construct: expressed in transfected cells; host or cells: HEK293 superTOPflash (human embryonic kidney), transient, pcDNA3.1/hygro
Description: as §1, §2, §3, §4, §5, §6, §7

hFzd-4 = biological target: T3, hFzd-4 (Homo sapiens, UniProt Q9ULV1); experiment: Luciferase activity in HEK293 superTOPflash cells overexpressing hFzd-4; type: cell-based; details: FIG. 3, Panel F
T3 construct: expressed in transfected cells; host or cells: HEK293 superTOPflash, transient, pcDNA3.1/hygro
T3 sequence (Q9ULV1 37-537): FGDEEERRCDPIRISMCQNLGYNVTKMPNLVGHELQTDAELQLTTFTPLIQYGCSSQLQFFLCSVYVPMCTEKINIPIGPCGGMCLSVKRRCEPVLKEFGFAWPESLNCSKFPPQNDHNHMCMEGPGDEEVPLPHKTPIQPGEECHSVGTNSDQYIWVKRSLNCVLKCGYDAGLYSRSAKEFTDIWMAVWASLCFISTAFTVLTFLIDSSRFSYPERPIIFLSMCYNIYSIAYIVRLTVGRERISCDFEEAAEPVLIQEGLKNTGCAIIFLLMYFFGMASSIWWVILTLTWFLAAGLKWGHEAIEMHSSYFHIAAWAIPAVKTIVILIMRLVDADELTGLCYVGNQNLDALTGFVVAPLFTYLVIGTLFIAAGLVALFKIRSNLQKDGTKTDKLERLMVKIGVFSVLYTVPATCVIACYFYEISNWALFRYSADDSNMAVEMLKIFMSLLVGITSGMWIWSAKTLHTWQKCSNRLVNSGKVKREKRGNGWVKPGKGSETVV
Description: (§8) In FIG. 3, Panel E, the efficacy of UM206 to block the Wnt3a-induced activation of luciferase activity in HEK293 superTOPflash cells transfected with different Fzds is shown.
as §7

hFzd-5 = biological target: T4, hFzd-5 (Homo sapiens, UniProt Q13467); experiment: Luciferase activity in HEK293 superTOPflash cells overexpressing hFzd-5; type: cell-based; details: FIG. 3, Panel F
T4 construct: expressed in transfected cells; host or cells: HEK293 superTOPflash, transient, pcDNA3.0
Description: as §8, §7

[1] = tested on: Wnt/Fzd signal transduction cascade; experiment: Luciferase activity in HEK293-superTOPflash cells (Wnt/Fzd signal transduction cascade); type: cell-based, human; details: for Luciferase activity induced by the peptide by itself: without Wnt3a
Excerpt: as §1
Three areas of high homology that contained two cysteines are underlined (UM207), (UM208) and (UM206). In FIGS. 9B through 9D, the inhibitory effect of these three peptides on Wnt3a-induced luciferase activity in HEK293-superTOPflash is shown. […] Again, the peptides by themselves had no effect on the luciferase activity.

Fzd-1 and -2 = experiment: UM206-Rhodamine binding to frozen sections of mouse kidney and gut and its blocking; details: 1.10^−8 M
Description: Specificity of the binding site was confirmed by prior incubation of the tissue sections with UM207 (1.10^−8 M) or recombinant Wnt3a (1.10^−8 M).
One-half of the hearts of the mice was embedded in paraffin and cut in 4 μm sections. The paraffin sections were rehydrated and washed in PBS. One section was stained with AZAN, allowing an accurate determination of the infarct size. To visualize the myofibroblasts in the infarct area, the sections were incubated with an antibody directed against a-smooth muscle actin (Sigma-Aldrich), followed by incubation with the peroxidase-conjugated secondary antibody (Vector laboratories). Nuclei were visualized by hematoxylin. Photos were taken with a Leica (CTR500, 63x/0.85) camera and analyzed with the Quantimet program (QWin/QGo). An examiner blinded to the groups of the animals obtained all measurements. For the experiments with Rhodamine-labeled UM206, frozen sections (4 μm) of mouse kidney and small intestine were used.

[2] = tested on: C-FIT cells (cardiac fibroblasts immortalized with telomerase); experiment: Migration (wound/scratch) assay with C-FIT cells overexpressing Fzd-1 or -2; type: cell-based, rat
Description: For this assay, we used rat cardiac fibroblasts, which were immortalized with telomerase, the C-FIT cell line. This cell line was characterized previously and resembles features of primary cardiac fibroblasts. C-FIT cells were plated, treated when they were 70% confluent and a wound was made with a pipette tip at the moment of 100% confluence.
This assay was first tested with the natural ligand Wnt3a, in combination with frizzled-1 and -2 overexpression. […] Next step was to see whether the antagonist could counteract this. (See FIG. 4.)
Day 1: • Plate cells in 12-well plates
Day 2: • Transfection (see protocol)
Day 3: • Addition of conditioned medium
Day 4: • Make a scratch. This is time point zero.
Making pictures every six hours and analyzing the scratch width.
Cells were plated on day 0, and cultured until 70% confluence before transfection or treatment. Migration assays started 48 hours after transfection and/or treatment. The time point where the scratch was made, is indicated as 0 hours. Scratch width was measured at this time point, and also after 6, 12, and 24 hours.

T1 sequence (Q08464 29-570): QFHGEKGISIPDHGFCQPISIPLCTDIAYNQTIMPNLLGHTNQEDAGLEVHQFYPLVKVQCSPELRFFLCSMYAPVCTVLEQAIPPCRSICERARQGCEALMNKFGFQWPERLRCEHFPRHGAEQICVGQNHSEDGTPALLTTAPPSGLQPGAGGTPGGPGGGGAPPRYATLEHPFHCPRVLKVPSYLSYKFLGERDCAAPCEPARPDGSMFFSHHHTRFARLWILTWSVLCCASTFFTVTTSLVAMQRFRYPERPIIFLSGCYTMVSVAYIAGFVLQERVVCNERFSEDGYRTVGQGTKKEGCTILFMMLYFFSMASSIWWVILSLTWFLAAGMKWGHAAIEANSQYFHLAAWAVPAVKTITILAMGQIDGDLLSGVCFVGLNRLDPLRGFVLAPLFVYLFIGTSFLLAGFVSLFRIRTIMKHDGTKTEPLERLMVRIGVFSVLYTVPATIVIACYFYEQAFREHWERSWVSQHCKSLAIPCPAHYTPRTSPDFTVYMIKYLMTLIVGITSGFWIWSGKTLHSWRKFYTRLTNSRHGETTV
T2 sequence (Q08463 69-641): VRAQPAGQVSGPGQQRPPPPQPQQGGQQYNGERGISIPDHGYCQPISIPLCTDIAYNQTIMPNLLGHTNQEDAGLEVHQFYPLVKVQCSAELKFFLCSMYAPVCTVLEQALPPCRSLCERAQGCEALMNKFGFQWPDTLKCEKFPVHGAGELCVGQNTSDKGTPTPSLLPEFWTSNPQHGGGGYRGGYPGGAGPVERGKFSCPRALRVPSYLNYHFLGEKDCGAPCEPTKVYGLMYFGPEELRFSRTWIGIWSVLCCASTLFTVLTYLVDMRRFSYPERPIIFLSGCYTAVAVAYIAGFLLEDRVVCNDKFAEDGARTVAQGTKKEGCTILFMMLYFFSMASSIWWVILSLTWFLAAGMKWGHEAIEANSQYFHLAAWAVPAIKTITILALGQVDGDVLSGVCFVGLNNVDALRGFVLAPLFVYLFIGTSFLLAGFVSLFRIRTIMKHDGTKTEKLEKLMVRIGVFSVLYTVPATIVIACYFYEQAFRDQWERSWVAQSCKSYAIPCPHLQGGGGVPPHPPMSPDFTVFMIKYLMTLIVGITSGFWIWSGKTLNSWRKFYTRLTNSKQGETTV
T4 sequence (Q13467 27-585): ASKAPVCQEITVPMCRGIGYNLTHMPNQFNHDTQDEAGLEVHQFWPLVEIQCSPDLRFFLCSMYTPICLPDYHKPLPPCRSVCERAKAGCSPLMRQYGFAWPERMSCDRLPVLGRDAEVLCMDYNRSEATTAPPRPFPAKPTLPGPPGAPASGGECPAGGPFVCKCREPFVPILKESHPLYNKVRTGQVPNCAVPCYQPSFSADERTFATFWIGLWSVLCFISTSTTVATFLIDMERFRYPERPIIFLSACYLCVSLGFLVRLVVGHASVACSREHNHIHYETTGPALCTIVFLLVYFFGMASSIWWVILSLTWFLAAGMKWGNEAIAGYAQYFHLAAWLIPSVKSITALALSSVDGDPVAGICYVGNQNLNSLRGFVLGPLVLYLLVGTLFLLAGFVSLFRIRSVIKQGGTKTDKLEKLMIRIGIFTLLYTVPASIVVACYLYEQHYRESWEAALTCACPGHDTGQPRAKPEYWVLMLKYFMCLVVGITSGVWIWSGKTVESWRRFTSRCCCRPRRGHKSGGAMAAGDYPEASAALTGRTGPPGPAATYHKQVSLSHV

Molecule: CC[C@H](C)[C@H](NC(=O)CNC(=O)[C@H](Cc1c[nH]cn1)NC(=O)[C@H](CO)NC(=O)[C@H](CO)NC(=O)[C@@H](NC(=O)[C@H](CC(N)=O)NC(=O)[C@H](CS)NC(C)=O)C(C)C)C(=O)N[C@@H](CC(=O)O)C(=O)NCC(=O)N[C@@H](CS)C(=O)N[C@@H](CC(=O)O)C(=O)N[C@@H](CC(C)C)C(N)=O [CNVSSHGIDGCDL] (Ac-CNVSSHGIDGCDL-NH2; N-terminus assumed)
% of inhibition for Fzd-2 (frizzled-2 (rFzd-2); 1.0): 62.41%
Activity on the frizzled receptor (in words) (frizzled receptor): showed antagonistic properties too, albeit that the potency was lower than that of UM206
% of inhibition for Fzd-1 (frizzled-1 (rFzd-1); 1.0): 45.32%

Molecule: CSCC[C@@H]1NC(=O)CNC(=O)[C@H](CCC(=O)O)NC(=O)[C@H](CO)NC(=O)[C@H]([C@@H](C)O)NC(=O)[C@H](CCCCN)NC(=O)[C@H](CC(N)=O)NC(=O)[C@@H](NC(C)=O)CSSC[C@@H](C(=O)N[C@@H](CCC(=O)O)C(=O)N[C@@H](CC(C)C)C(N)=O)NC(=O)CNC(=O)[C@H](CC(=O)O)NC1=O [UM206(S-S)] (Ac-CNKTSEGMDGCEL-NH2; disulfide 1-11)
Agonist activity, frizzled-2 (frizzled-2 (rFzd-2); FIG. 3, Panel F): specific agonist
Agonist activity, frizzled-4 (hFzd-4): not for frizzled-4 or frizzled-5
Agonist activity, frizzled-5 (hFzd-5): not for frizzled-4 or frizzled-5
Agonist activity, frizzled-1 (frizzled-1 (rFzd-1); FIG. 3, Panel F): specific agonist

Molecule: UM206-rhodamine: UM206 with rhodamine attached to Lys^3 (Ac-CNK(rhodamine)TSEGMDGCEL-NH2; reading uncertain; also: printed as Ac-Cys-Asn-Lys-Thr-Ser-Glu-Gly-Met-Asp-Gly-Cys-Glu-Leu-NH2)
Staining of frozen sections of mouse kidney and gut (Fzd-1 and -2; 15 minutes, two-foton microscopy): staining of tubular epithelium and panneth cells

Molecule: UM207 S-S: UM207 forced to form a cyclic structure by inducing a S-S bond between the two cysteine residues (GIKECQYQFRHRRWNCSTVD-NH2; disulfide 5-16 (inferred); not fully specified (N-terminus))
Activity on the frizzled receptor (in words) (frizzled receptor): potent agonist

Molecule: Wnt3a
Effect of Wnt protein on migration of CFIT overexpressing rFzd-1 or -2 [2]: attenuated the migration
Increase of the luciferase activity by natural ligand in combination with frizzled-2 (frizzled-2 (rFzd-2); concentration-dependent): twelve-fold
Increase of luciferase activity on addition of Wnt3a ([1]; HEK293-superTOPflash, no Fzd transfection): ~450 fold
Blocking of UM206-rhodamine binding by prior incubation (Fzd-1 and -2): completely abolished the binding

B1: Wnt5a: natural ligand (Wnt protein) for frizzled-1 and frizzled-2 (protein, listed as Homo sapiens)
chain: FFLMALATFFSFAQVVIEANSWWSLGMNNPVQMSEVHIIGAQPLCSQLAGLSQGQKKLCHLYQDHMQYIGEGAKTGIKECQYQFRHRRWNCSTVDNTSVFGRVMQIGSRETAFTYAVSAAGVVNAMSRACREGELSTCGCSRAARPKDLPRDWLWGGCGDNIDYGYRFAKEFVDARERERIHAKGSYESARILMNLHNNEAGRRTVYNLADVACKCHGVSGSCSLKTCWLQLADFRKVGDALKEKYDSAAAMRLNSRGKLVQVNSRFNSPTTQDLVYIDPSPDYCVRNESTGSLGTQGRLCNKTSEGMDGCELMCCGRGYDQFKTVQTERCHCKFHWCCYVKCKKCTEIVDQFVCK
Effect of Wnt protein on migration of CFIT overexpressing rFzd-1 or -2 [2]: attenuated the migration

Continued, in another order:

Blocking of Wnt3a-induced luciferase activity, rFzd-2 (frizzled-2 (rFzd-2)): blocked almost completely
Activity on the frizzled receptor (in words) (frizzled receptor): potent antagonist
Blocking of UM206-rhodamine binding by prior incubation (Fzd-1 and -2): completely abolished the binding
Blocking of Wnt3a-induced luciferase activity, rFzd-1 (frizzled-1 (rFzd-1)): blocked almost completely
Molecule: CC[C@H](C)[C@H](NC(=O)CNC(C)=O)C(=O)N[C@@H](CCCCN)C(=O)N[C@@H](CCC(=O)O)C(=O)N[C@@H](CS)C(=O)N[C@@H](CCC(N)=O)C(=O)N[C@@H](Cc1ccc(O)cc1)C(=O)N[C@@H](CCC(N)=O)C(=O)N[C@@H](Cc1ccccc1)C(=O)N[C@@H](CCCNC(=N)N)C(=O)N[C@@H](Cc1c[nH]cn1)C(=O)N[C@@H](CCCNC(=N)N)C(=O)N[C@@H](CCCNC(=N)N)C(=O)N[C@@H](Cc1c[nH]c2ccccc12)C(=O)N[C@@H](CC(N)=O)C(=O)N[C@@H](CS)C(=O)N[C@@H](CO)C(=O)N[C@H](C(=O)N[C@H](C(=O)N[C@@H](CC(=O)O)C(N)=O)C(C)C)[C@@H](C)O [UM207] (Ac-GIKECQYQFRHRRWNCSTVD-NH2)
Luciferase activity induced by the peptide by itself [1]: none of the three peptides by itself could induce an increase in luciferase activity

Blocking of Wnt3a-induced luciferase activity, rFzd-2 (frizzled-2 (rFzd-2)): blocked almost completely
Blocking of Wnt3a-induced luciferase activity, rFzd-1 (frizzled-1 (rFzd-1)): blocked almost completely
Molecule: CC(=O)NCC(=O)N[C@@H](CO)C(=O)N[C@@H](CS)C(=O)N[C@@H](CO)C(=O)N[C@@H](CC(C)C)C(=O)N[C@@H](CCCCN)C(=O)N[C@H](C(=O)N[C@@H](CS)C(=O)N[C@@H](Cc1c[nH]c2ccccc12)C(=O)N[C@@H](CC(C)C)C(=O)N[C@@H](CCC(N)=O)C(=O)N[C@@H](CC(C)C)C(=O)N[C@@H](C)C(=O)N[C@@H](CC(=O)O)C(N)=O)[C@@H](C)O [UM208, GSCSLKTCWLQLAD] (Ac-GSCSLKTCWLQLAD-NH2)
Luciferase activity induced by the peptide by itself [1]: none of the three peptides by itself could induce an increase in luciferase activity

From patent US8598122B2, “Antagonistic peptides for frizzled-1 and frizzled-2” (Universiteit Maastricht, priority 2009, dated 2013)
